Source: patent US12643912B2, “Macrocyclic compounds, a process for their preparation and pharmaceutical compositions containing them” (LES LABORATOIRES SERVIER, priority 2020, dated 2026)
Read-outs that look alike come from different tables or passages of the source.

Assays:
Keap1 (A321-C624) (h) = molecular target: T1, Keap1 (A321-C624) (h) (Homo sapiens, UniProt Q14145); experiment: Surface Plasmon Resonance binding assay to Kelch domain of KEAP1; details: Biacore T200, 25° C., immobilized His-Thromb-KEAP1(A321-C624), single cycle kinetics, KD=kd/ka from 1:1 fit; read-out: Keap1 (A321-C624) (h) direct/SPR (KD)
T1 construct: His-Thromb-KEAP1(A321-C624) acquired from Novalix (batch PU-P01) was immobilized covalently by amine coupling; His tag (N); thrombin cleavage site (Thromb) (N); purchased Novalix batch PU-P01
Procedure: EXAMPLE 85: SURFACE PLASMON RESONANCE
Binding assay to Kelch domain of KEAP1 was performed by Surface Plasmon Resonance (SPR) on a Biacore T200 (GE Healthcare) at 25° C. using CM5 chip. His-Thromb-KEAP1(A321-C624) acquired from Novalix (batch PU-P01) was immobilized covalently by amine coupling using standard wizard protocol, at a concentration of 20 μg/mL in sodium acetate pH 5.5. The ligand was captured until 1250 RU was reached. Amine blank is used as the reference flow cell. Binding of analyte to the ligand was monitored in real time with associations of 180 seconds and a dissociation of 720 seconds. Association (ka) and dissociation (kd) rates were fitted with a simple 1:1 kinetic interaction model using Biacore T200 Evaluation Software (GE Healthcare). The equilibrium constant (KD=kd/ka) was calculated from these fitted parameters. […] The Biacore binding assay was performed with a flowrate of 50 μL/min using a running buffer of 10 mM HEPES (pH 7.4), 150 mM NaCl, 3 mM EDTA, 1 mM TCEP, 0.05% P20,5% DMSO. Double subtraction was used by subtracting both reference flow cell and previous blank cycle (with running buffer). Solvent correction was applied to correct DMSO bulk effect.

[1] = test system: Nrf2 (Keap1-NRF2 nuclear translocation); experiment: U2OS translocation assay (PathHunter U2OS Keap1-NRF2 Nuclear Translocation Cell Line); format: cell-based
How it was run: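 PathHunter U2OS line expressing Nrf2-enzyme-donor fusion and nuclear acceptor enzyme, 7 500 cells/well in Opti-MEM, 1% FBS. Compounds incubated 3 h at 37° C. Luminescence after 60 min with detection reagent, normalized between 1% DMSO and 10 μM andrographolide.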

[2] = read-out: CELLULAR U2OS EC50, U2OS Keap1-NRF2 nuclear translocation cells, 3 h incubation, luminescence, normalized between 1% DMSO and 10 μM andrographolide
[3] = Homo sapiens, U2OS, 3 h, read-out: CELLULAR U2OS EC50 (nM), U2OS Keap1-NRF2 nuclear translocation cells, 3 h incubation, luminescence, normalized between 1% DMSO and 10 μM andrographolide

T1 sequence (Q14145 321-624): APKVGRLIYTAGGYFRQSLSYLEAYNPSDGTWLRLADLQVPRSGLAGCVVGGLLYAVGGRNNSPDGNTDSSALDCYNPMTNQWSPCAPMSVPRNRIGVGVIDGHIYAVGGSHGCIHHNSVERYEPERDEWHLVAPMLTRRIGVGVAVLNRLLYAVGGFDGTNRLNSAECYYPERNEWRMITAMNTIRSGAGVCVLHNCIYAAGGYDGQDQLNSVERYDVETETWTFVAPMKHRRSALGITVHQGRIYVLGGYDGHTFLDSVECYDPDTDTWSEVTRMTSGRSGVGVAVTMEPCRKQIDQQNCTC

What does the source list for `Cc1ccc2cc1CN1Cc3cc(cc(C)c3OS1(=O)=O)OCCCCn1nnc3c(C)c(ccc31)C2CC(=O)O` (single isomer, unassigned) [Example 15a, [4,24,31-Trimethyl-27,27-dioxo-21,26-dioxa-27λ^6-thia-1,14,15,16-tetraazahexacyclo[20.5.3.1^3,70.1^9,130.0^12,160.0^25,29]dotriaconta-3(32),4,6,9(31),10,12,14,22,24,29-decaen-8-yl]acetic acid]?
Kd (Keap1 (A321-C624) (h)): 1.92 nM; EC50 [1, 2]: 57.9 nM

`Cc1ccc2cc1CN1Cc3cc(ccc3OS1(=O)=O)OCCCCn1nnc3c(C)c(ccc31)[C@@H]2CC(=O)O` [Example 7b, [(8R)-4,31-dimethyl-27,27-dioxo-21,26-dioxa-27λ^6-thia-1,14,15,16-tetraazahexacyclo[20.5.3.1^3,70.1^9,130.0^12,160.0^25,29]dotriaconta-3(32),4,6,9(31),10,12,14,22,24,29-decaen-8-yl]acetic acid] was tested. Which Kd (Keap1 (A321-C624) (h)) did it give?
The Kd was 4.86 nM.

And the EC50 [1, 3]?
The EC50 was 290 nM.

Which results are given for `Cc1ccc2cc1CN1Cc3cc(ccc3OS1(=O)=O)Oc1ccccc1NCCCn1nnc3c(C)c(ccc31)C2CC(=O)O` (single isomer, unassigned) [Example 71a, [4,37-Dimethyl-33,33-dioxo-27,32-dioxa-33λ^6-thia-1,14,15,16,20-pentaazaheptacyclo[26.5.3.1^3,70.1^9,130.0^12,160.0^21,260.0^31,35]octatriaconta-3(38),4,6,9(37),10,12,14,21,23,25,28,30,35-tridecaen-8-yl]acetic acid]?
Kd (Keap1 (A321-C624) (h)): 19.3 nM; EC50 [1, 3]: 42 nM

Which Kd (Keap1 (A321-C624) (h)) does the source give for `Cc1ccc2cc1CN1Cc3cc(ccc3OS1(=O)=O)OCCCn1nnc3c(C)c(ccc31)C2CC(=O)O` (racemic) [Example 2, [4,30-Dimethyl-26,26-dioxo-20,25-dioxa-26λ^6-thia-1,14,15,16-tetraazahexacyclo[19.5.3.1^3,70.1^9,130.0^12,160.0^24,28]hentriaconta-3(31),4,6,9(30),10,12,14,21,23,28-decaen-8-yl]acetic acid] here?
Its Kd is 35.2 nM.

What about the EC50 [1, 3] of the same compound?
The EC50 was 830 nM.

Which results are given for `COc1cc2cc(c1OC)CN1Cc3cc(ccc3OS1(=O)=O)OCCCCn1nnc3c(C)c(ccc31)C2CC(=O)O` (single isomer, unassigned) [Example 35a, [4,5-Dimethoxy-31-methyl-27,27-dioxo-21,26-dioxa-27λ^6-thia-1,14,15,16-tetraazahexacyclo[20.5.3.1^3,70.1^9,130.0^12,160.0^25,29]dotriaconta-3(32),4,6,9(31),10,12,14,22,24,29-decaen-8-yl]acetic acid]?
Kd (Keap1 (A321-C624) (h)): 33600 nM; EC50 [1, 3]: > 3160 nM

How did the Kd (Keap1 (A321-C624) (h)) turn out when `Cc1ccc2cc1[C@@H](C)N1Cc3cc(ccc3OS1(=O)=O)OCCN(C)CCCn1nnc3c(C)c(ccc31)[C@H]2CC(=O)O` [Example 34a, [(2R,8S)-2,4,20,33-tetramethyl-29,29-dioxo-23,28-dioxa-29λ^6-thia-1,14,15,16,20-pentaazahexacyclo[22.5.3.1^3,70.1^9,130.0^12,160.0^27,31]tetratriaconta-3(34),4,6,9(33),10,12,14,24,26,31-decaen-8-yl]acetic acid] was run?
The Kd was 0.49 nM.

What about the EC50 [1, 3] of the same compound?
Its EC50 is 2.66 nM.

Which results are given for `Cc1c(Cl)cc2cc1CN1Cc3cc(ccc3OS1(=O)=O)OCCCCn1nnc3c(C)c(ccc31)C2CC(=O)O` (single isomer, unassigned) [Example 33b, [5-Chloro-4,31-dimethyl-27,27-dioxo-21,26-dioxa-27λ^6-thia-1,14,15,16-tetraazahexacyclo[20.5.3.1^3,70.1^9,130.0^12,160.0^25,29]dotriaconta-3(32),4,6,9(31),10,12,14,22,24,29-decaen-8-yl]acetic acid]?
Kd (Keap1 (A321-C624) (h)): 9.29 nM; EC50 [1, 2]: 894 nM

What does the source list for `Cc1ccc2cc1CN1Cc3cc(ccc3OS1(=O)=O)OCCN(c1ccccc1)CCn1nnc3c(C)c(ccc31)C2CC(=O)O` (single isomer, unassigned) [Example 58a, [4,32-Dimethyl-28,28-dioxo-19-phenyl-22,27-dioxa-28λ^6-thia-1,14,15,16,19-pentaazahexacyclo[21.5.3.1^3,70.1^9,130.0^12,160.0^26,30]tritriaconta-3(33),4,6,9(32),10,12,14,23,25,30-decaen-8-yl]acetic acid]?
Kd (Keap1 (A321-C624) (h)): 4.66 nM; EC50 [1, 2]: 90.4 nM

Which results are given for `COc1ccc2cc1CN1Cc3cc(ccc3OS1(=O)=O)OCc1ccccc1SCCCCn1nnc3c(C)c(ccc31)C2CC(=O)O` (single isomer, unassigned) [Example 54b]?
Kd (Keap1 (A321-C624) (h)): 391 nM; EC50 [1, 2]: 2270 nM

`COc1cc2cc3c1OS(=O)(=O)N(C3)[C@H](C)c1cc(ccc1C)[C@H](CC(=O)O)c1ccc3c(nnn3CCCCO2)c1C` [Example 23b, [(2R,8S)-24-methoxy-2,4,31-trimethyl-27,27-dioxo-21,26-dioxa-27λ^6-thia-1,14,15,16-tetraazahexacyclo[20.5.3.1^3,70.1^9,130.0^12,160.0^25,29]dotriaconta-3(32),4,6,9(31),10,12,14,22,24,29-decaen-8-yl]acetic acid] was tested. Which Kd (Keap1 (A321-C624) (h)) did it give?
Its Kd is 8.8 nM.

What about the EC50 [1, 3] of the same compound?
Its EC50 is 344 nM.

What does the source list for `COc1ccc2cc1CN1Cc3cc(ccc3OS1(=O)=O)OCc1ccccc1SCCCCn1nnc3c(C)c(ccc31)C2CC(=O)O` (single isomer, unassigned) [Example 54a]?
Kd (Keap1 (A321-C624) (h)): 90.5 nM; EC50 [1, 3]: 1290 nM

`Cc1cc2cc(c1Cl)CN1Cc3cc(ccc3OS1(=O)=O)OCCCCn1nnc3c(C)c(ccc31)C2CC(=O)O` (single isomer, unassigned) [Example 36a, [4-Chloro-5,31-dimethyl-27,27-dioxo-21,26-dioxa-27λ^6-thia-1,14,15,16-tetraazahexacyclo[20.5.3.1^3,70.1^9,130.0^12,160.0^25,29]dotriaconta-3(32),4,6,9(31),10,12,14,22,24,29-decaen-8-yl]acetic acid] was tested. Which Kd (Keap1 (A321-C624) (h)) did it give?
Its Kd is 9.02 nM.

And the EC50 [1, 2]?
The EC50 was 126 nM.

For `Cc1c2ccc3c1nnn3CCCCOc1ccc3c(c1)CN(Cc1cc(F)cc(c1)C2CC(=O)O)S(=O)(=O)O3` (stereo not drawn) [Example 4, [5-Fluoro-31-methyl-27,27-dioxo-21,26-dioxa-27λ^6-thia-1,14,15,16-tetraazahexacyclo[20.5.3.1^3,70.1^9,130.0^12,160.0^25,29]dotriaconta-3(32),4,6,9(31),10,12,14,22,24,29-decaen-8-yl]acetic acid], which Kd (Keap1 (A321-C624) (h)) is on record?
Its Kd is 255 nM.

What about the EC50 [1, 3] of the same compound?
The EC50 was 3470 nM.

How did the Kd (Keap1 (A321-C624) (h)) turn out when `Cc1ccc2cc1CN1Cc3cc(ccc3OS1(=O)=O)OCCCCCCn1nnc3c(C)c(ccc31)C2CC(=O)O` (single isomer, unassigned) [Example 11b, [4,33-Dimethyl-29,29-dioxo-23,28-dioxa-29λ^6-thia-1,14,15,16-tetraazahexacyclo[22.5.3.1^3,70.1^9,130.0^12,160.0^27,31]tetratriaconta-3(34),4,6,9(33),10,12,14,24,26,31-decaen-8-yl]acetic acid] was run?
The Kd was 0.778 nM.

And the EC50 [1, 2]?
Its EC50 is 13.1 nM.

Which results are given for `COc1cc2cc(c1)C(CC(=O)O)c1ccc3c(nnn3CCCCOc3ccc4c(c3)CN(C2)S(=O)(=O)O4)c1C` (single isomer, unassigned) [Example 8b, [5-Methoxy-31-methyl-27,27-dioxo-21,26-dioxa-27λ^6-thia-1,14,15,16-tetraazahexacyclo[20.5.3.1^3,70.1^9,130.0^12,160.0^25,29]dotriaconta-3(32),4,6,9(31),10,12,14,22,24,29-decaen-8-yl]acetic acid]?
Kd (Keap1 (A321-C624) (h)): 12.4 nM; EC50 [1, 2]: 516 nM

`Cc1ccc2cc1CN1Cc3cc(c(F)cc3OS1(=O)=O)OCCCCn1nnc3c(C)c(ccc31)C2CC(=O)O` (single isomer, unassigned) [Example 32b, [23-Fluoro-4,31-dimethyl-27,27-dioxo-21,26-dioxa-27λ^6-thia-1,14,15,16-tetraazahexacyclo[20.5.3.1^3,70.1^9,130.0^12,160.0^25,29]dotriaconta-3(32),4,6,9(31),10,12,14,22,24,29-decaen-8-yl]acetic acid] was tested. Which Kd (Keap1 (A321-C624) (h)) did it give?
The Kd was 2.02 nM.

What about the EC50 [1, 2] of the same compound?
The EC50 was 150 nM.

How did the Kd (Keap1 (A321-C624) (h)) turn out when `Cc1ccc2cc1[C@@H](C)N1Cc3cc(ccc3OS1(=O)=O)OCCCOCCn1nnc3c(C)c(ccc31)[C@@H]2CC(=O)O` [Example 27a, [(2R,8R)-2,4,33-Trimethyl-29,29-dioxo-19,23,28-trioxa-29λ^6-thia-1,14,15,16-tetraazahexacyclo[22.5.3.1^3,70.1^9,130.1^12,160.0^27,31]tetratriaconta-3(34),4,6,9(33),10,12,14,24,26,31-decaen-8-yl]acetic acid] was run?
The Kd was 14.2 nM.

What about the EC50 [1, 3] of the same compound?
Its EC50 is 93.1 nM.

Which Kd (Keap1 (A321-C624) (h)) does the source give for `Cc1ccc2cc1CN1Cc3cc(c(F)cc3OS1(=O)=O)OCCCCn1nnc3c(C)c(ccc31)C2CC(=O)O` (single isomer, unassigned) [Example 32a, [23-Fluoro-4,31-dimethyl-27,27-dioxo-21,26-dioxa-27λ^6-thia-1,14,15,16-tetraazahexacyclo[20.5.3.1^3,70.1^9,130.0^12,160.0^25,29]dotriaconta-3(32),4,6,9(31),10,12,14,22,24,29-decaen-8-yl]acetic acid] here?
The Kd was 0.645 nM.

What about the EC50 [1, 2] of the same compound?
Its EC50 is 20 nM.
